Laboratory results taken from BindingDB's records for doi:10.1128/aac.38.12.2827 (Merck Research Laboratories, 1995).

target: Polymerase acidic protein (Influenza A virus (strain A/Puerto Rico/8/1934 H1N1), UniProt P03433); experiment: Inhibition of cap 1 ALMV primed Influenza transcriptase

| Structure (SMILES) | IC50 |
| --- | --- |
| NC(=O)C(=O)CC(=O)C1CCCCC1 | > 500 µM |
| O=C(O)C(=O)CS(=O)(=O)c1ccccc1 | > 500 µM |
| O=C(O)C(=O)Cc1cc2ccccc2o1 | > 500 µM |
| Cn1c(CC(=O)C(=O)O)nc2ccccc21 | > 500 µM |
| O=C(O)C(=O)Cc1nc2ccccc2s1 | > 500 µM |
